Experiment [1] concerns the target human GLP-1 receptor (GLP-1R) (Homo sapiens, UniProt P43220). In words: cAMP pharmacological functional assay in presence of casein, hGLP-1R. In kind it is cell-based. The settings on record: HEK293 cells expressing hGLP-1R, 0.1% Casein, geometric mean; read-out: hGLP1R cAMP Rel EC50 nM (SEM, n).
For experiment [2], the target named is T1, gastric inhibitory peptide receptor (GIPR) (Homo sapiens, UniProt P48546).
T1 sequence (P48546 22-466): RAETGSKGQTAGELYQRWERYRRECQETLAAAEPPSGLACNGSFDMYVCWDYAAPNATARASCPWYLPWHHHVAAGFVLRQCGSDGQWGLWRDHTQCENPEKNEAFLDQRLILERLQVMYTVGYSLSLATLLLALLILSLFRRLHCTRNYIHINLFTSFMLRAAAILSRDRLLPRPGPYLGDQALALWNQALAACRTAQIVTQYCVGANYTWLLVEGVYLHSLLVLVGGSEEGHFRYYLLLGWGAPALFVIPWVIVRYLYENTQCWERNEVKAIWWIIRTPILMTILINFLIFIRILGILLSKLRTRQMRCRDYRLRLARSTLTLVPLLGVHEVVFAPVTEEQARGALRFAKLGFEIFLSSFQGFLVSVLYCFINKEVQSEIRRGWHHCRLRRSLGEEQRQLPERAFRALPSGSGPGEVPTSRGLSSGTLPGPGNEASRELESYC
In words: cAMP pharmacological functional assay in presence of casein, hGIPR. Particulars: HEK293 cells expressing hGIPR, 0.1% Casein, geometric mean; read-out: hGIPR cAMP Rel EC50 nM (SEM, n). In kind it is cell-based.

Numbered stars: 1 amine (or outer) side, 2 acyl side, 3 side chain; on linkers, the order of the positions; unused ones are H or OH. Square brackets hold non-standard residues; d marks the D form. Side chains are listed from the residue outwards. Peptide text beside a SMILES is read from it. * marks the point of attachment. C20 diacid = O=C(O)CCCCCCCCCCCCCCCCCCC(=O)*; αMePhe(2-F) = C[C@](N)(Cc1ccccc1F)C(=O)O; γGlu = O=C(O)[C@H](CCC(=O)[*:2])N[*:1]; 3Pal = N[C@@H](Cc1cccnc1)C(=O)O; αMeL = CC(C)C[C@](C)(N)C(=O)O; αMeP = C[C@@]1(C(=O)O)CCCN1; AEEA = NCCOCCOCC(=O)O; Aib = CC(C)(N)C(=O)O

human GLP-1 receptor (GLP-1R), sequence (P43220 24-463): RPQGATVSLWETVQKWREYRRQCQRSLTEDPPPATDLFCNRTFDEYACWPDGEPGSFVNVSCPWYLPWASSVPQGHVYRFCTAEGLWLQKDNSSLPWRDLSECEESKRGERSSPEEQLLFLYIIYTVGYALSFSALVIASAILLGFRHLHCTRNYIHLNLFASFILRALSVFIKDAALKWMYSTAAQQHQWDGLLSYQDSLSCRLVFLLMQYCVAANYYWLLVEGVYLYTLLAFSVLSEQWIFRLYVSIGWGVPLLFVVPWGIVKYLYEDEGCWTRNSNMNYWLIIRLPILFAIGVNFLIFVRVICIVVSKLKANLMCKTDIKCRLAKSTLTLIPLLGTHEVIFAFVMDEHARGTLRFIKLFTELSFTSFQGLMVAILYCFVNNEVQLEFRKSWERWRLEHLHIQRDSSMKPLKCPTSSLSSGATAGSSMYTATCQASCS

Regarding `CC[C@H](C)[C@H](NC(=O)[C@H](CC(C)C)NC(=O)[C@H](Cc1ccc(O)cc1)NC(=O)[C@@H](CCC(=O)O)NC(=O)[C@@H](NC(=O)[C@H](Cc1ccccc1)NC(=O)[C@H](CCC(=O)O)NC(=O)C(C)(C)NC(=O)[C@H](CCC(N)=O)NC(=O)[C@H](C)NC(=O)[C@H](CCCCNC(=O)COCCOCCNC(=O)COCCOCCNC(=O)CC[C@H](NC(=O)CCCCCCCCCCCCCCCCCCC(=O)O)C(=O)O)NC(=O)[C@H](CCC(=O)O)NC(=O)[C@H](CC(=O)O)NC(=O)[C@H](CC(C)C)NC(=O)[C@](C)(CC(C)C)NC(=O)[C@@H](NC(=O)[C@H](CO)NC(=O)[C@H](CCC(N)=O)NC(=O)[C@H](CC(=O)O)NC(=O)[C@H](CO)NC(=O)[C@@H](NC(=O)[C@](C)(Cc1ccccc1F)NC(=O)[C@@H](NC(=O)CNC(=O)[C@H](CCC(=O)O)NC(=O)C(C)(C)NC(=O)[C@@H](N)Cc1ccc(O)cc1)[C@@H](C)O)[C@@H](C)O)[C@@H](C)CC)[C@@H](C)CC)C(=O)N[C@@H](CCC(=O)O)C(=O)NCC(=O)NCC(=O)N1CCC[C@H]1C(=O)N[C@@H](CO)C(=O)N[C@@H](CO)C(=O)NCC(=O)N[C@@H](C)C(=O)N1CCC[C@H]1C(=O)N1CCC[C@H]1C(=O)N1CCC[C@H]1C(=O)N[C@@H](CO)C(N)=O` [Example 187] (H-Y[Aib]EGT[αMePhe(2-F)]TSDQSI[αMeL]LDEK([AEEA-AEEA-γGlu-C20 diacid])AQ[Aib]EFI[dE]YLIEGGPSSGAPPPS-NH2), the EC50 (commonly the concentration giving half of the maximal effect) in experiment [1] amounted to 0.0577 nM; in experiment [2] it was 0.0371 nM.

In the case of `CC[C@H](C)[C@H](NC(=O)[C@H](CC(C)C)NC(=O)[C@H](Cc1ccc(O)cc1)NC(=O)C(C)(C)NC(=O)[C@@H](NC(=O)[C@H](Cc1ccccc1)NC(=O)[C@H](CCC(=O)O)NC(=O)C(C)(C)NC(=O)[C@H](CCC(N)=O)NC(=O)[C@H](C)NC(=O)[C@H](CCCCNC(=O)COCCOCCNC(=O)COCCOCCNC(=O)CC[C@H](NC(=O)CCCCCCCCCCCCCCCCCCC(=O)O)C(=O)O)NC(=O)[C@H](CCC(=O)O)NC(=O)[C@H](CC(=O)O)NC(=O)[C@H](CC(C)C)NC(=O)[C@](C)(CC(C)C)NC(=O)[C@@H](NC(=O)[C@H](CO)NC(=O)[C@H](Cc1cccnc1)NC(=O)[C@H](CC(=O)O)NC(=O)[C@H](CO)NC(=O)[C@@H](NC(=O)[C@](C)(Cc1ccccc1F)NC(=O)[C@@H](NC(=O)CNC(=O)[C@H](CCC(=O)O)NC(=O)C(C)(C)NC(=O)[C@@H](N)Cc1ccc(O)cc1)[C@@H](C)O)[C@@H](C)O)[C@@H](C)CC)[C@@H](C)CC)C(=O)N[C@@H](CCC(=O)O)C(=O)NCC(=O)NCC(=O)N1CCC[C@H]1C(=O)N[C@@H](CO)C(=O)N[C@@H](CO)C(=O)NCC(=O)N[C@@H](C)C(=O)N1CCC[C@H]1C(=O)N1CCC[C@H]1C(=O)N1CCC[C@H]1C(=O)N[C@@H](CO)C(N)=O` [Example 188] (H-Y[Aib]EGT[αMePhe(2-F)]TSD[3Pal]SI[αMeL]LDEK([AEEA-AEEA-γGlu-C20 diacid])AQ[Aib]EFI[Aib]YLIEGGPSSGAPPPS-NH2), the figures for the EC50 in experiment [1] and in experiment [2] were 0.13 nM and 0.121 nM, respectively.

With `CC[C@H](C)[C@H](NC(=O)[C@H](CC(C)C)NC(=O)[C@H](Cc1ccc(O)cc1)NC(=O)[C@@H](CCC(=O)O)NC(=O)[C@@H](NC(=O)[C@H](Cc1ccccc1)NC(=O)[C@H](CCC(=O)O)NC(=O)C(C)(C)NC(=O)[C@H](CCC(N)=O)NC(=O)[C@H](C)NC(=O)[C@H](CCCCNC(=O)COCCOCCNC(=O)COCCOCCNC(=O)CC[C@H](NC(=O)CCCCCCCCCCCCCCCCCCC(=O)O)C(=O)O)NC(=O)[C@H](CCC(=O)O)NC(=O)[C@H](CC(=O)O)NC(=O)[C@H](CC(C)C)NC(=O)[C@](C)(CC(C)C)NC(=O)[C@@H](NC(=O)[C@H](CO)NC(=O)[C@H](Cc1cccnc1)NC(=O)[C@H](CC(=O)O)NC(=O)[C@H](CO)NC(=O)[C@@H](NC(=O)[C@](C)(Cc1ccccc1F)NC(=O)[C@@H](NC(=O)CNC(=O)[C@H](CCC(=O)O)NC(=O)C(C)(C)NC(=O)[C@@H](N)Cc1c[nH]cn1)[C@@H](C)O)[C@@H](C)O)[C@@H](C)CC)[C@@H](C)CC)C(=O)N[C@@H](CCC(=O)O)C(=O)NCC(=O)NCC(=O)N1CCC[C@H]1C(=O)N[C@@H](CO)C(=O)N[C@@H](CO)C(=O)NCC(=O)N[C@@H](C)C(=O)N1CCC[C@H]1C(=O)N1CCC[C@H]1C(=O)N1CCC[C@H]1C(=O)N[C@@H](CO)C(N)=O` [Example 190] (H-H[Aib]EGT[αMePhe(2-F)]TSD[3Pal]SI[αMeL]LDEK([AEEA-AEEA-γGlu-C20 diacid])AQ[Aib]EFI[dE]YLIEGGPSSGAPPPS-NH2), the EC50 in experiment [1] was 0.0241 nM; in experiment [2], 0.738 nM.

Take `CC[C@H](C)[C@H](NC(=O)[C@H](CC(C)C)NC(=O)[C@H](Cc1ccc(O)cc1)NC(=O)[C@H](CCC(=O)O)NC(=O)[C@@H](NC(=O)[C@H](Cc1ccccc1)NC(=O)[C@H](C)NC(=O)[C@H](CCC(N)=O)NC(=O)[C@H](CCC(N)=O)NC(=O)[C@H](C)NC(=O)[C@H](CCCCNC(=O)COCCOCCNC(=O)COCCOCCNC(=O)CC[C@H](NC(=O)CCCCCCCCCCCCCCCCCCC(=O)O)C(=O)O)NC(=O)[C@H](CCC(=O)O)NC(=O)[C@H](CC(=O)O)NC(=O)[C@H](CC(C)C)NC(=O)[C@H](CC(C)C)NC(=O)[C@@H](NC(=O)[C@H](CO)NC(=O)[C@H](Cc1ccc(O)cc1)NC(=O)[C@H](CC(=O)O)NC(=O)[C@H](CO)NC(=O)[C@@H](NC(=O)[C@H](Cc1ccccc1)NC(=O)[C@@H](NC(=O)CNC(=O)[C@H](CCC(=O)O)NC(=O)[C@]1(C)CCCN1C(=O)[C@@H](N)Cc1ccc(O)cc1)[C@@H](C)O)[C@@H](C)O)[C@@H](C)CC)[C@@H](C)CC)C(=O)N[C@@H](CCC(=O)O)C(=O)NCC(=O)NCC(=O)N1CCC[C@H]1C(=O)N[C@@H](CO)C(=O)N[C@@H](CO)C(=O)NCC(=O)N[C@@H](C)C(=O)N1CCC[C@H]1C(=O)N1CCC[C@H]1C(=O)N1CCC[C@H]1C(=O)N[C@@H](CO)C(N)=O` [Example 193] (H-Y[αMeP]EGTFTSDYSILLDEK([AEEA-AEEA-γGlu-C20 diacid])AQQAFIEYLIEGGPSSGAPPPS-NH2): the half-maximal effective concentration (EC50) in experiment [1] was found to be 0.162 nM; in experiment [2], 0.336 nM.

As for `CC[C@H](C)[C@H](NC(=O)[C@H](CC(C)C)NC(=O)[C@H](Cc1ccc(O)cc1)NC(=O)[C@H](CCC(=O)O)NC(=O)[C@@H](NC(=O)[C@H](Cc1ccccc1)NC(=O)[C@H](C)NC(=O)[C@H](Cc1c[nH]cn1)NC(=O)[C@H](CCC(N)=O)NC(=O)[C@H](C)NC(=O)[C@H](CCCCNC(=O)COCCOCCNC(=O)COCCOCCNC(=O)CC[C@H](NC(=O)CCCCCCCCCCCCCCCCCCC(=O)O)C(=O)O)NC(=O)[C@H](CCC(=O)O)NC(=O)[C@H](CC(=O)O)NC(=O)[C@H](CC(C)C)NC(=O)[C@H](CC(C)C)NC(=O)[C@@H](NC(=O)[C@H](CO)NC(=O)[C@H](Cc1ccc(O)cc1)NC(=O)[C@H](CC(=O)O)NC(=O)[C@H](CO)NC(=O)[C@@H](NC(=O)[C@H](Cc1ccccc1)NC(=O)[C@@H](NC(=O)CNC(=O)[C@H](CCC(=O)O)NC(=O)[C@]1(C)CCCN1C(=O)[C@@H](N)Cc1ccc(O)cc1)[C@@H](C)O)[C@@H](C)O)[C@@H](C)CC)[C@@H](C)CC)C(=O)N[C@@H](CCC(=O)O)C(=O)NCC(=O)NCC(=O)N1CCC[C@H]1C(=O)N[C@@H](CO)C(=O)N[C@@H](CO)C(=O)NCC(=O)N[C@@H](C)C(=O)N1CCC[C@H]1C(=O)N1CCC[C@H]1C(=O)N1CCC[C@H]1C(=O)N[C@@H](CO)C(N)=O` [Example 194] (H-Y[αMeP]EGTFTSDYSILLDEK([AEEA-AEEA-γGlu-C20 diacid])AQHAFIEYLIEGGPSSGAPPPS-NH2; N-terminus assumed), the EC50 is 0.284 nM in experiment [1] and 0.423 nM in experiment [2].

With `CC[C@H](C)[C@H](NC(=O)[C@H](CC(C)C)NC(=O)[C@H](Cc1ccc(O)cc1)NC(=O)[C@H](CCC(=O)O)NC(=O)[C@@H](NC(=O)[C@H](Cc1ccccc1)NC(=O)[C@H](C)NC(=O)[C@H](CCC(N)=O)NC(=O)[C@H](CCC(N)=O)NC(=O)[C@H](C)NC(=O)[C@H](CCCCNC(=O)COCCOCCNC(=O)COCCOCCNC(=O)CC[C@H](NC(=O)CCCCCCCCCCCCCCCCCCC(=O)O)C(=O)O)NC(=O)[C@H](CCCNC(=N)N)NC(=O)[C@H](CC(=O)O)NC(=O)[C@H](CC(C)C)NC(=O)[C@H](CC(C)C)NC(=O)[C@@H](NC(=O)[C@H](CO)NC(=O)[C@H](Cc1ccc(O)cc1)NC(=O)[C@H](CC(=O)O)NC(=O)[C@H](CO)NC(=O)[C@@H](NC(=O)[C@H](Cc1ccccc1)NC(=O)[C@@H](NC(=O)CNC(=O)[C@H](CCC(=O)O)NC(=O)[C@]1(C)CCCN1C(=O)[C@@H](N)Cc1ccc(O)cc1)[C@@H](C)O)[C@@H](C)O)[C@@H](C)CC)[C@@H](C)CC)C(=O)N[C@@H](CCC(=O)O)C(=O)NCC(=O)NCC(=O)N1CCC[C@H]1C(=O)N[C@@H](CO)C(=O)N[C@@H](CO)C(=O)NCC(=O)N[C@@H](C)C(=O)N1CCC[C@H]1C(=O)N1CCC[C@H]1C(=O)N1CCC[C@H]1C(=O)N[C@@H](CO)C(N)=O` [Example 195] (H-Y[αMeP]EGTFTSDYSILLDRK([AEEA-AEEA-γGlu-C20 diacid])AQQAFIEYLIEGGPSSGAPPPS-NH2), the EC50 was 0.0966 nM in experiment [1] and 0.193 nM in experiment [2].

These data come from US12252524B2, “GIP/GLP1 co-agonist compounds” (Eli Lilly and Company, priority 2018, dated 2025).
